From PMC9694544, “Conteltinib (CT-707) in patients with advanced ALK-positive non-small cell lung cancer: a multicenter, open-label, first-in-human phase 1 study” (BMC Medicine, 2022)

Molecular target: ALK L1196M (Homo sapiens, UniProt Q9UM73, L1196M)
Assay: ALK enzymatic IC50, L1196M
Assay type: biochemical
From the text: Supplement 12916_2022_2646_MOESM1_ESM.docx, table 1 | column: ALK Enzymatic IC50 (nM)

## COc1cc(N2CCC(N3CCN(C)CC3)CC2)ccc1Nc1nc2c(c(Nc3ccccc3S(=O)(=O)NC(C)C)n1)CCN2 [Conteltinib]
  IC50: 3.8 nM
